Where two headings read alike, the source gives them in different places.
Columns and labels:
MM96L melanoma cells = test: Cell survival assay (clonogenic survival, SRB); assay type: cell-based, human; conditions: for SI (Selectivity Index = IC50 (NFF)/IC50 (MM96L)): NFF vs MM96L
Procedure: (§1) The cytotoxicities of the compounds of the invention were determined by clonogenic survival of human cancer cells (MM96L, melanoma) and human normal cells (NFF, neonatal foreskin fibroblasts). Cells were incubated with the compounds at various concentrations of compound (0.01-10 μg/mL) for 24 hours, washed, and then grown for a further four days in the absence of hydroxamic acid before determining cell survival by cell count. The final readout involved staining with sulforhodamine B (SRB), a cost-effective method amenable to automation and high throughput analysis. At the technical level, “cell sensitivity” is often inferred from short term (1-2 day) observations such as apoptosis, which may not be a satisfactory model of clonogenic survival.
(§2) Cell Lines and Culture Medium. All cell lines used in this study have been described previously (Parsons et al., 1986; Todaro et al., 1980; Glenn et al., 2004). All cell lines were cultured in 10% heat-inactivated foetal calf serum (CSL, Australia) in RPMI 1640 medium supplemented with 100 U/mL penicillin, 100 μg/mL streptomycin, and 3 mM HEPES at 5% CO2, 99% humidity at 37° C. Primary human fibroblasts were obtained from neonatal foreskins and cultured in the above medium. Routine mycoplasma tests were performed using Hoechst stain^i and were always negative.
(§3) Cell Survival Assay. Cells were plated into 96-well microtitre plates at 5×10^3 cells/well, and allowed to adhere overnight. Test compounds were added to culture medium at the indicated concentrations, and plates incubated in the above conditions for 24 hours. Following this incubation period, compounds and media were removed, and replaced with fresh culture medium. Cells were then grown for a further 72 hours before assay using sulforhodamine B (SRB; Sigma, St. Louis, Mo.) as previously described. Briefly, the culture medium was removed from the 96-well microtitre plates and the plates washed twice with phosphate buffered saline (PBS), before the cells were fixed with methylated spirits for 15 minutes. The plates were then rinsed with tap water and the fixed cells stained with 50 μL/well of SRB solution (0.4% sulforhodamine B (w/v) in 1% (v/v) acetic acid) over a period of 1 hour. The SRB solution was then removed from the wells and the plates rapidly washed two times with 1% (v/v) acetic acid. Protein bound dye was then solubilised with the addition of 100 μL of 10 mM unbuffered Tris, and incubated for 15 min at 25° C. Plates were then read at 564 nm on a VERSA max tunable microplate reader (Molecular Devices, Sunnyvale, Calif.).

[1] = system: NFF, neonatal foreskin fibroblasts; test: Cell survival assay (clonogenic survival, SRB), normal cells; assay type: cell-based, human; conditions: SRB
Procedure: as §1, §2, §3

[2] = MM96L melanoma, 24 h with compound, further 72 h growth, SRB, read-out: IC50 (uM) MM96L
[3] = NFF normal fibroblasts, 24 h with compound, further 72 h growth, read-out: IC50 (uM) NFF
[4] = Homo sapiens, MM96L, MM96L melanoma, 24 h with compound, further 72 h growth, SRB, read-out: IC50 (uM) MM96L
[5] = Homo sapiens, Fibroblast, NFF normal fibroblasts, 24 h with compound, further 72 h growth, read-out: IC50 (uM) NFF
[6] = Table 5, 24 hours with compound, further growth, SRB, read-out: IC50 MM96L
[7] = Table 5, Selectivity Index = IC50 (NFF)/IC50 (MM96L)
[8] = Table 5, 24 hours with compound, further growth, read-out: IC50 NFF
[9] = Homo sapiens, MM96L, 24 h, Table 6, 24 hours with compound, further growth, SRB, read-out: IC50 (μM) MM96L
[10] = Table 6, IC50 (NFF)/IC50 (MM96L)
[11] = Homo sapiens, Fibroblast, 24 h, Table 6, 24 hours with compound, further growth, read-out: IC50 (μM) NFF

| SMILES | IC50 (MM96L melanoma cells; [6]) [µM] | Selectivity (MM96L melanoma cells; [7]) | IC50 [1, 8] [µM] | other results |
| --- | --- | --- | --- | --- |
| CN(C)c1ccc(C(=O)NC(CSCCCC(=O)NO)C(=O)NCc2ccc(C(=O)NC3CCCc4ccccc43)cc2)cc1 (mixture of isomers) [Example 119] | – | – | – | IC50 (MM96L melanoma cells; Table 8, 24 hours with compound, further growth, SRB, read-out: IC50 (μM) MM96): 0.93 µM; Selectivity (MM96L melanoma cells; Table 8, IC50 (NFF)/IC50 (MM96L)): 1.9; IC50 ([1]; Table 8, 24 hours with compound, further growth, read-out: IC50 (μM) NFF): 1.74 µM |
| CN(C)c1ccc(C(=O)NC(CCCCCC(=O)NO)C(=O)NC2CCCc3ccccc32)cc1 (racemic) [Example 125] | – | – | – | IC50 (MM96L melanoma cells; [2]): 0.3 ± 0.1 µM; SI (Selectivity Index = IC50 (NFF)/IC50 (MM96L)) (MM96L melanoma cells): 6.0; IC50 [1, 3]: 1.81 ± 0.07 µM |
| O=C(CCCCC[C@H](NC(=O)c1ccco1)C(=O)NCc1ccccc1)NO (racemic) [Example 133] | – | – | – | IC50 (MM96L melanoma cells; [4]): 0.2 ± 0.1 µM; IC50 (MM96L melanoma cells; Homo sapiens, MM96L, most preferred compounds, exemplary examples, read-out: potency of IC50 against the MM96 melanoma cells): ≤ 0.5 µM; SI (Selectivity Index = IC50 (NFF)/IC50 (MM96L)) (MM96L melanoma cells): 23; IC50 [1, 5]: 4.6 ± 0.4 µM |
| O=C(CCCCC[C@H](NC(=O)c1cccnc1)C(=O)NCc1ccccc1)NO (racemic) [Example 134] | – | – | – | IC50 (MM96L melanoma cells; [4]): 9.5 ± 0.8 µM; SI (Selectivity Index = IC50 (NFF)/IC50 (MM96L)) (MM96L melanoma cells): 2.5; IC50 [1, 5]: 24 ± 8 µM |
| O=C(CCCCC[C@H](NC(=O)c1ccc([N+](=O)[O-])cc1)C(=O)NCc1ccccc1)NO (racemic) [Example 135] | – | – | – | IC50 (MM96L melanoma cells; [4]): 6 ± 1 µM; SI (Selectivity Index = IC50 (NFF)/IC50 (MM96L)) (MM96L melanoma cells): 1.5; IC50 [1, 5]: 9 ± 2 µM |
| CC(C)CCNC(=O)C(CCCCCC(=O)NO)NC(=O)c1ccco1 (racemic) [Example 144] | – | – | – | IC50 (MM96L melanoma cells; [2]): 1.5 ± 0.2 µM; SI (Selectivity Index = IC50 (NFF)/IC50 (MM96L)) (MM96L melanoma cells): 2.9; IC50 [1, 3]: 4.4 ± 0.5 µM |
| O=C(CCCSC[C@H](NC(=O)c1ccc(-c2ccccc2)cc1)C(=O)NCc1ccccc1)NO [Example 25] | 0.9 ± 0.1 | 3.1 | 2.8 ± 0.2 | – |
| Cc1cc(C)cc(C(=O)N[C@@H](CSCCCC(=O)NO)C(=O)NCc2ccccc2)c1 [Example 26] | 2 ± 0.4 | 5.5 | 10.9 ± 0.9 | – |
| O=C(CCCSC[C@H](NC(=O)c1ccccc1C(=O)c1ccccc1)C(=O)NCc1ccccc1)NO [Example 27] | 24 ± 3 | 1.3 | 30 ± 1 | – |
| O=C(CCCSC[C@H](NC(=O)c1ccc(F)cc1Cl)C(=O)NCc1ccccc1)NO [Example 28] | 28 ± 3 | >3 | > 100 | – |
| O=C(CCCSC[C@H](NC(=O)c1ccc(F)cc1)C(=O)NCc1ccccc1)NO [Example 29] | 5.2 ± 0.6 | 5.0 | 26 ± 1 | – |
| COc1cc(OC)cc(C(=O)N[C@@H](CSCCCC(=O)NO)C(=O)NCc2ccccc2)c1 [Example 30] | 1.7 ± 0.3 | 2.6 | 4.5 ± 0.6 | – |
| O=C(CCCSC[C@H](NC(=O)c1cccc(O)c1O)C(=O)NCc1ccccc1)NO [Example 31] | 32 ± 3 | 0.14 | 4.5 ± 0.6 | – |
| O=C(CCCSC[C@H](NC(=O)c1ccccc1[N+](=O)[O-])C(=O)NCc1ccccc1)NO [Example 32] | 10.6 ± 0.1 | >10 | > 100 | – |
| O=C(CCCSC[C@H](NC(=O)c1cccs1)C(=O)NCc1ccccc1)NO [Example 33] | 2.5 ± 0.2 | 3.6 | 9 ± 1 | – |
| O=C(CCCSC[C@H](NC(=O)c1ccco1)C(=O)NCc1ccccc1)NO [Example 34] | 7.2 ± 0.2 | 3.1 | 22 ± 1 | – |
| O=C(CCCSC[C@H](NC(=O)c1cnccn1)C(=O)NCc1ccccc1)NO [Example 35] | 19 ± 2 | 3.3 | 62 ± 5 | – |
| O=C(CCCSC[C@H](NC(=O)c1cccnc1)C(=O)NCc1ccccc1)NO [Example 36] | 12.8 ± 0.8 | >8 | > 100 | – |
| O=C(CCCSC[C@H](NC(=O)c1cccc2ccccc12)C(=O)NCc1ccccc1)NO [Example 37] | 6.3 ± 0.6 | 0.8 | 5.3 ± 0.6 | – |
| O=C(CCCSC[C@H](NC(=O)c1ccc2ccccc2c1)C(=O)NCc1ccccc1)NO [Example 38] | 0.6 ± 0.2 | 1.9 | 1.14 ± 0.05 | – |
| O=C(CCCSC[C@H](NC(=O)c1cc2ccccc2cc1O)C(=O)NCc1ccccc1)NO [Example 39] | 13 ± 2 | >8 | > 100 | – |

| SMILES | IC50 (MM96L melanoma cells; [6]) [µM] | Selectivity (MM96L melanoma cells; [7]) | IC50 [1, 8] [µM] | other results |
| --- | --- | --- | --- | --- |
| O=C(CCCSC[C@H](NC(=O)Cc1cccc([N+](=O)[O-])c1)C(=O)NCc1ccccc1)NO [Example 41] | 12 ± 1 | >8 | > 100 | – |
| O=C(CCCSC[C@H](NC(=O)Cc1ccc(-c2ccccc2)cc1)C(=O)NCc1ccccc1)NO [Example 42] | 12 ± 3 | 1.8 | 21 ± 2 | – |
| O=C(CCCSC[C@H](NC(=O)C(c1ccccc1)c1ccccc1)C(=O)NCc1ccccc1)NO [Example 43] | 9.3 ± 0.3 | 2.4 | 22 ± 2 | – |
| O=C(CCCSC[C@H](NC(=O)Cc1cccc2ccccc12)C(=O)NCc1ccccc1)NO [Example 45] | 4.1 ± 0.7 | 3.7 | 15 ± 1 | – |
| O=C(CCCSC[C@H](NC(=O)CCc1ccccc1)C(=O)NCc1ccccc1)NO [Example 46] | 7.4 ± 0.5 | 2.9 | 21 ± 3 | – |
| COc1ccc(CCC(=O)N[C@@H](CSCCCC(=O)NO)C(=O)NCc2ccccc2)cc1 [Example 47] | 8 ± 1 | 2.0 | 16 ± 1 | – |
| O=C(/C=C/c1ccccc1)N[C@@H](CSCCCC(=O)NO)C(=O)NCc1ccccc1 [Example 48] | 0.2 ± 0.1 | 4.0 | 0.8 ± 0.2 | – |
| O=C(CCCSC[C@H](NC(=O)CCCc1ccccc1)C(=O)NCc1ccccc1)NO [Example 49] | 5 ± 1 | 2.2 | 11 ± 2 | – |
| CC(C)CCC(=O)N[C@@H](CSCCCC(=O)NO)C(=O)NCc1ccccc1 [Example 50] | 7 ± 2 | 3.6 | 25 ± 4 | – |
| C/C=C/C(=O)N[C@@H](CSCCCC(=O)NO)C(=O)NCc1ccccc1 [Example 52] | 11 ± 0.7 | >9 | > 100 | – |
| CC(C)=CC(=O)N[C@@H](CSCCCC(=O)NO)C(=O)NCc1ccccc1 [Example 53] | 11 ± 1 | 2.0 | 22 ± 1 | – |
| O=C(CCCSC[C@H](NC(=O)C1CCCC1)C(=O)NCc1ccccc1)NO [Example 54] | 21 ± 3 | >5 | > 100 | – |
| O=C(CCCSC[C@H](NC(=O)C1CC1)C(=O)NCc1ccccc1)NO [Example 55] | 21 ± 2 | >5 | > 100 | – |
| O=C(CCCSC[C@H](NC(=O)C1CCC(=O)N1)C(=O)NCc1ccccc1)NO (stereo partly shown) [Example 56] | 4.4 ± 0.3 | 2.2 | 9.6 ± 0.9 | – |
| O=C(CCCSC[C@H](NS(=O)(=O)c1ccccc1)C(=O)NCc1ccccc1)NO [Example 58] | < 100 | >1 | > 100 | – |
| CC(=O)c1cccc(NC(=O)[C@H](CSCCCC(=O)NO)NC(=O)c2ccc(N(C)C)cc2)c1 [Example 60] | – | – | – | IC50 (MM96L melanoma cells; [9]): 0.55 ± 0.05 µM; Selectivity (MM96L melanoma cells; [10]): 2.9; IC50 [1, 11]: 1.6 ± 0.08 µM |
| CN(C)c1ccc(C(=O)N[C@@H](CSCCCC(=O)NO)C(=O)Nc2ccccc2-c2ccccc2)cc1 [Example 62] | – | – | – | IC50 (MM96L melanoma cells; [9]): 2.1 ± 0.2 µM; Selectivity (MM96L melanoma cells; [10]): 2.1; IC50 [1, 11]: 4.4 ± 0.6 µM |
| COC(=O)c1ccc(NC(=O)[C@H](CSCCCC(=O)NO)NC(=O)c2ccc(N(C)C)cc2)cc1 [Example 63] | – | – | – | IC50 (MM96L melanoma cells; [9]): 0.96 ± 0.07 µM; IC50 [1, 11]: 2.8 ± 0.1 µM |
| CN(C)c1ccc(C(=O)N[C@@H](CSCCCC(=O)NO)C(=O)Nc2ccccc2Cc2ccccc2)cc1 [Example 64] | – | – | – | IC50 (MM96L melanoma cells; [9]): 3.5 ± 0.2 µM; Selectivity (MM96L melanoma cells; [10]): 1.9; IC50 [1, 11]: 6.8 ± 0.4 µM |
| O=C(CCCCCC(NC(=O)C(Cc1ccccc1)NC(=O)Cc1c[nH]c2ccccc12)C(=O)NCc1ccccc1)NO (stereo not shown) [Example 164] | – | – | – | IC50 [1, 3]: 9.76 µM |
